From PubChem BioAssay (NCI)
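Interpolation was linear, between the two tested concentrations surrounding the appropriate level; five concentrations were tested over 48 hours in 96-well plates. Here, GI50 denotes the concentration required for 50% inhibition of growth. TGI denotes the concentration required for complete inhibition of growth.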

Tests used:
Test in all cases: DTP human tumour cell line panel, 48 h
U251 CNS = system: U251 CNS
OVCAR-4 ovarian = system: OVCAR-4 ovarian
SN12C renal = system: SN12C renal
K-562 leukemia = system: K-562 leukemia
HCT-15 colon = system: HCT-15 colon
SK-MEL-5 melanoma = system: SK-MEL-5 melanoma
HOP-92 NSCLC = system: HOP-92 NSCLC
HOP-62 NSCLC = system: HOP-62 NSCLC
MDA-MB-231 breast = system: MDA-MB-231 breast
LOX IMVI melanoma = system: LOX IMVI melanoma

| SMILES | GI50 (U251 CNS) | TGI (U251 CNS) | GI50 (OVCAR-4 ovarian) | TGI (OVCAR-4 ovarian) | GI50 (SN12C renal) | TGI (SN12C renal) | GI50 (K-562 leukemia) | TGI (K-562 leukemia) | GI50 (HCT-15 colon) | TGI (HCT-15 colon) | GI50 (SK-MEL-5 melanoma) | TGI (SK-MEL-5 melanoma) | GI50 (HOP-92 NSCLC) | TGI (HOP-92 NSCLC) | GI50 (HOP-62 NSCLC) | TGI (HOP-62 NSCLC) | GI50 (MDA-MB-231 breast) | TGI (MDA-MB-231 breast) | GI50 (LOX IMVI melanoma) | TGI (LOX IMVI melanoma) |
| --- | --- | --- | --- | --- | --- | --- | --- | --- | --- | --- | --- | --- | --- | --- | --- | --- | --- | --- | --- | --- |
| O=C(Nc1ccc(-n2cc(-c3ccncc3)c(-c3ccc(Cl)c(O)c3)n2)cc1)c1ccc(Cl)c(C(F)(F)F)c1 | 0.895 µM | 2.91 µM | 3.66 µM | > 90.4 µM | 4.39 µM | > 83.6 µM | 0.404 µM | 4.09 µM | 0.444 µM | 2.58 µM | 0.6 µM | 1.64 µM | 1.99 µM | 5.87 µM | 0.622 µM | 2.2 µM | 0.322 µM | 1.48 µM | 0.344 µM | 1.58 µM |
| Nc1ncnc2c1c(-c1ccc(Oc3ccccc3)cc1)nn2C[C@H]1SSC[C@H]1O | 1.2 µM | 4.27 µM | 1.15 µM | > 100 µM | 1.4 µM | 4.67 µM | 0.197 µM | 3.1 µM | 0.201 µM | 2.29 µM | 0.159 µM | 0.372 µM | 2.03 µM | 7.31 µM | 0.039 µM | 0.893 µM | 1.33 µM | 3.71 µM | 0.0703 µM | 0.523 µM |
| CN(CC(=O)O)Cc1c[nH]c2ccccc12 | – | > 100 µM | – | > 100 µM | – | > 100 µM | – | > 100 µM | – | > 100 µM | – | > 100 µM | – | > 100 µM | – | > 100 µM | – | > 100 µM | – | > 100 µM |
| N=C(N)c1ccc(-c2ccc(-c3ccccc3)o2)o1 | 2.22 µM | 5.12 µM | 3.48 µM | 14.5 µM | 3.12 µM | 10.3 µM | 0.657 µM | 3.18 µM | 1.16 µM | 4.22 µM | 1.75 µM | 3.19 µM | 1.85 µM | 4.73 µM | 3.59 µM | 15.3 µM | 2.04 µM | 4.9 µM | 1.7 µM | 3.34 µM |
| COC(=O)c1cccc(COc2ccc([N+](=O)[O-])cc2Cl)c1 | – | > 100 µM | – | > 100 µM | – | > 100 µM | – | > 100 µM | – | > 100 µM | – | > 100 µM | – | > 100 µM | – | > 100 µM | – | > 100 µM | – | > 100 µM |
| COc1cccc(-c2nn(C)c3sc(C(=O)NCCN4CCN(c5ccccc5F)CC4)cc23)c1 | 7.14 µM | 59.5 µM | 19.1 µM | > 100 µM | 79.5 µM | > 100 µM | 3.78 µM | > 100 µM | 3.18 µM | 15.5 µM | 6.38 µM | 26.2 µM | 13.4 µM | > 100 µM | 25.8 µM | > 100 µM | 3.87 µM | 62.4 µM | 13.4 µM | > 100 µM |
| Clc1ccc2c(NCCCNCc3ccc4c(c3)OCO4)ccnc2c1 | 2.68 µM | 7.11 µM | 10.8 µM | 24.8 µM | 8.26 µM | 21.6 µM | 2.19 µM | 7.63 µM | 2.42 µM | 7.85 µM | 1.74 µM | 3.13 µM | 0.739 µM | 4.74 µM | 11.5 µM | 24.2 µM | 1.72 µM | 5.78 µM | 1.91 µM | 4.41 µM |
| Nc1nc(N)c(N=Nc2ccc([As](=O)(O)O)c(O)c2)c(N)n1 | – | > 100 µM | – | > 100 µM | – | > 26.8 µM | – | > 100 µM | – | > 100 µM | – | > 100 µM | – | > 100 µM | – | > 100 µM | – | > 100 µM | – | > 100 µM |
| C=CCOc1ccc2c(c1)CC[C@@H]1[C@@H]2CC[C@]2(C)C(=O)/C(=N/O)C[C@@H]12 | 9.8 µM | > 51 µM | 2.17 µM | 8.6 µM | 4.01 µM | > 44.2 µM | 2.88 µM | 8.61 µM | 2.05 µM | 7.06 µM | 11.6 µM | 25.7 µM | 1.52 µM | 5.98 µM | 6.08 µM | > 49.3 µM | 1.85 µM | 5.09 µM | 2.49 µM | 8.08 µM |
| NC1=C(O)/C(=N/NS(=O)(=O)c2ccccc2)C(c2cccc(Cl)c2)O1 (stereo not given) | – | 55.7 µM | – | > 100 µM | – | > 67.2 µM | – | 27.9 µM | – | 27 µM | – | > 100 µM | – | 53 µM | – | > 100 µM | – | 37.6 µM | – | 49.2 µM |
| COc1ccc(/C=N/C2=C(C#N)C(c3ccccc3)c3ccc4ccccc4c3O2)cc1 (stereo not given) | 0.457 µM | > 100 µM | 0.645 µM | > 100 µM | 0.68 µM | > 100 µM | 0.23 µM | > 100 µM | 0.509 µM | > 100 µM | 0.336 µM | 7.95 µM | 0.439 µM | > 44 µM | 0.373 µM | > 100 µM | 0.522 µM | 8.39 µM | 0.587 µM | > 51.4 µM |
| CCCCCCOc1ccc(/C=N/Nc2cc(C)nc3ccc(Br)cc23)cc1 | 1.87 µM | 3.36 µM | 1.81 µM | 3.46 µM | 1.69 µM | 3.17 µM | 1.07 µM | 2.96 µM | 1.52 µM | 2.88 µM | 1.67 µM | 3.04 µM | 1.45 µM | 2.97 µM | 1.47 µM | 2.94 µM | 1.62 µM | 3.08 µM | 1.53 µM | 2.9 µM |
| COc1ccc(-c2nn(C(=O)c3cc(OC)c(OC)c(OC)c3)c3cc(N)ccc23)cc1 | < 0.01 µM | 1.87 µM | < 0.0195 µM | 12.9 µM | < 0.0162 µM | 10.8 µM | < 0.01 µM | 10.5 µM | < 0.01 µM | 7.21 µM | < 0.0145 µM | 0.0453 µM | 1.86 µM | 25.8 µM | < 0.0153 µM | 6.33 µM | 0.0133 µM | 12.9 µM | < 0.01 µM | 5.54 µM |
| NC(CSC(c1ccccc1)(c1ccccc1)c1ccc(Br)cc1)C(=O)O (stereo not given) | 0.0798 µM | 25.5 µM | 19.9 µM | > 100 µM | 0.3 µM | 49.8 µM | 0.311 µM | 20.6 µM | 0.258 µM | > 82 µM | 0.0721 µM | 12.2 µM | 2.47 µM | 39.6 µM | 0.457 µM | 21.8 µM | 0.133 µM | 3.92 µM | 0.659 µM | 19.8 µM |
